Experiment in all cases: Kinase panel
Common to all, as to type: biochemical

For one assay, the target named is T1, EphB2(h) (Homo sapiens, UniProt P29323).
T1 construct: purchased Millipore KinaseProfiler
T1 sequence (P29323 19-1055): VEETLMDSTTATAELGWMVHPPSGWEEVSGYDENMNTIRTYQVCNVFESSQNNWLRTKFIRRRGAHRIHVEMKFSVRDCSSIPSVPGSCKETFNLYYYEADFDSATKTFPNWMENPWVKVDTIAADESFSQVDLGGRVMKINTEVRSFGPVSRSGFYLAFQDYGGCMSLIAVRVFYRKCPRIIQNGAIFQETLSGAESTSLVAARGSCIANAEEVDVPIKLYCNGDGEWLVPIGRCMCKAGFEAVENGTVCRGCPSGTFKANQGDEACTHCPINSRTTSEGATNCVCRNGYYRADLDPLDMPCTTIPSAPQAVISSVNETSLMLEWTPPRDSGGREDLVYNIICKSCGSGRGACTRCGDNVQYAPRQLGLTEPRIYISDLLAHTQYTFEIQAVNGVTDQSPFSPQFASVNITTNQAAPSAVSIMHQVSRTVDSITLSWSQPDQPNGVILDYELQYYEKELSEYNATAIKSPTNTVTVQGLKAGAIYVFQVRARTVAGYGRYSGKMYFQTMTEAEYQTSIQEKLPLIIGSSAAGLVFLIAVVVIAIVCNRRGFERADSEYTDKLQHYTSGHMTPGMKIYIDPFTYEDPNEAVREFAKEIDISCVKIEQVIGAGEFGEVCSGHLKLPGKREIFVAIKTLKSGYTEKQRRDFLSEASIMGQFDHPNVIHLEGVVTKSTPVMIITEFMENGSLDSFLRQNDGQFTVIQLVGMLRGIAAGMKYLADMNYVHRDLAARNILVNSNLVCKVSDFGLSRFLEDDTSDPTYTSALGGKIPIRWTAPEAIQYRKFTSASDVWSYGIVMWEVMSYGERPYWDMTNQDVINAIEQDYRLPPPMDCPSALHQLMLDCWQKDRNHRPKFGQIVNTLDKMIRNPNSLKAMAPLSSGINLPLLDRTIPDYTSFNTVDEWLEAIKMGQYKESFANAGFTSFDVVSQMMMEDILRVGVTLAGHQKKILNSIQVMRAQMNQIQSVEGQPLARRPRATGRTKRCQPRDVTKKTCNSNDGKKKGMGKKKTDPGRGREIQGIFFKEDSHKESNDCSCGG

The target in another assay is T2, MEK1(h) (Homo sapiens, UniProt Q02750).
T2 construct: purchased Millipore KinaseProfiler

The target in a further assay is T3, TBK1(h) (Homo sapiens, UniProt Q9UHD2).
T3 construct: purchased Millipore KinaseProfiler
T3 sequence (Q9UHD2 1-729): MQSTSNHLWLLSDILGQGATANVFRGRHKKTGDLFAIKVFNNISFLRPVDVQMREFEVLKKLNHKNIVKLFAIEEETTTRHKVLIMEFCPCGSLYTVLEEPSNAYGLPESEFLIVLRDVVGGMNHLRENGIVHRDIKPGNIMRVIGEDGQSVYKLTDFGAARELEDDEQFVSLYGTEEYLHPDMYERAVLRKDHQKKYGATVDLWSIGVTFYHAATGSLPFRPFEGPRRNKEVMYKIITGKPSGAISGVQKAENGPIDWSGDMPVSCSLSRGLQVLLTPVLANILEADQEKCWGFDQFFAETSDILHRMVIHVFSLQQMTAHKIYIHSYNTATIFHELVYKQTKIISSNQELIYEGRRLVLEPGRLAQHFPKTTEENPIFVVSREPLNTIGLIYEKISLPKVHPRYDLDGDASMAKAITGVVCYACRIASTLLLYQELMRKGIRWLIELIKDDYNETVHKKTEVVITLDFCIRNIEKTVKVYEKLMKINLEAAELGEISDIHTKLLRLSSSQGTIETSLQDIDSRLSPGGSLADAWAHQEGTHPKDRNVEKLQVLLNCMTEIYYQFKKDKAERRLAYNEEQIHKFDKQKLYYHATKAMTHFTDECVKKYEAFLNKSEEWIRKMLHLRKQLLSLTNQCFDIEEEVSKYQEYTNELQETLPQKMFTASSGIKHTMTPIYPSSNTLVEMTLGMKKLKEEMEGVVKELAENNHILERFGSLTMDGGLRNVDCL

A further assay has as its target T4, PhKγ2(h) (Homo sapiens, UniProt P15735).
T4 construct: purchased Millipore KinaseProfiler
T4 sequence (P15735 1-406): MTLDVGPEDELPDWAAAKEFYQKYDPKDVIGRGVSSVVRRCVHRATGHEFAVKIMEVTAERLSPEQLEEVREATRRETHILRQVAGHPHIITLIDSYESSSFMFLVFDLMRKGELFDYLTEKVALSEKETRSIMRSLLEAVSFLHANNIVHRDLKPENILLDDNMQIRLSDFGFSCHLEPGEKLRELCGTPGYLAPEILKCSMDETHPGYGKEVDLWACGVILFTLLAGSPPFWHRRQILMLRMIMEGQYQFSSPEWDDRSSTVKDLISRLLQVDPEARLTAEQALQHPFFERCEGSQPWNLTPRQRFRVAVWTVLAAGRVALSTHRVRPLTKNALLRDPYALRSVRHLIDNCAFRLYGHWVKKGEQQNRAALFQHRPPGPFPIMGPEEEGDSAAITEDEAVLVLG

The target of the next assay is T5, CK1γ1(h) (Homo sapiens, UniProt Q9HCP0).
T5 construct: purchased Millipore KinaseProfiler

The next assay has as its target T6, CK1γ3(h) (Homo sapiens, UniProt Q9Y6M4).
T6 construct: purchased Millipore KinaseProfiler

Results on two compounds are retold here after paper PMC4076210, “Discovery of Novel AKT Inhibitors with Enhanced Anti-Tumor Effects in Combination with the MEK Inhibitor” (PLoS ONE, 2014).

Read-outs that look alike come from different tables or passages of the source.

T2 sequence (Q02750 whole entry): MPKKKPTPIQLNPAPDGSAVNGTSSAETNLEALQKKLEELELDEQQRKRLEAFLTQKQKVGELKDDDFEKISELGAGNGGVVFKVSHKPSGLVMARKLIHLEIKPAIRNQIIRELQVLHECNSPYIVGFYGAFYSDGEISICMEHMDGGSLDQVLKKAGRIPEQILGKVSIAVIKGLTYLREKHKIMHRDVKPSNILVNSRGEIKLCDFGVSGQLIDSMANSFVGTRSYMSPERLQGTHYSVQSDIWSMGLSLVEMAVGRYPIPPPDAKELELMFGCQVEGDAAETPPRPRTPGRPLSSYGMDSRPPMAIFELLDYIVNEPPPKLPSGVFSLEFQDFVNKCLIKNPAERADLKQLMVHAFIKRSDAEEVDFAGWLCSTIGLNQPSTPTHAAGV
T5 sequence (Q9HCP0 whole entry): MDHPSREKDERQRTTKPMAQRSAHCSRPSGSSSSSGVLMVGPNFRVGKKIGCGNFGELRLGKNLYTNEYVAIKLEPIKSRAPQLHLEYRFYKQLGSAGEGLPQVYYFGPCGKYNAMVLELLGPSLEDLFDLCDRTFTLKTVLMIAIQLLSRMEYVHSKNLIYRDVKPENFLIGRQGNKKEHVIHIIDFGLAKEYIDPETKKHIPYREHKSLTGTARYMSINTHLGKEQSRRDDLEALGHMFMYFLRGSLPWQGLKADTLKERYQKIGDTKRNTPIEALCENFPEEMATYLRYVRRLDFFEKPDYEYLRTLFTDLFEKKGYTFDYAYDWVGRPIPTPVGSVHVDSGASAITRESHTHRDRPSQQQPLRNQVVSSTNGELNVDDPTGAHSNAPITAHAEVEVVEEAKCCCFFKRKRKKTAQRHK
T6 sequence (Q9Y6M4 whole entry): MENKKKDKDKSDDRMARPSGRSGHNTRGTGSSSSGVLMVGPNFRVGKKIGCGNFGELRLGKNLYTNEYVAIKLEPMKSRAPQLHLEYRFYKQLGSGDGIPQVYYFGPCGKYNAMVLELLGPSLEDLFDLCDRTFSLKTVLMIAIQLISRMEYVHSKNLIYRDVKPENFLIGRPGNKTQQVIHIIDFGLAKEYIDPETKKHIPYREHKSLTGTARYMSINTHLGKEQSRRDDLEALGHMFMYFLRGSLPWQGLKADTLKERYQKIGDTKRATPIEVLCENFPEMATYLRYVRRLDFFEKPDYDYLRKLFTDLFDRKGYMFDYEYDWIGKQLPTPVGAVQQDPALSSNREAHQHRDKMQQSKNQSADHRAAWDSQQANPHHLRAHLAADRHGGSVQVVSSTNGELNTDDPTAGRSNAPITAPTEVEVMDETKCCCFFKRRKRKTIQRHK

For orientation: inhibition means the change of the read-out against control, counted positive when it falls. Turning to `Cn1ncc(Cl)c1-c1cc(C(=O)N[C@H](CN)Cc2cccc(F)c2)sc1Cl` [GSK2110183], the inhibition at 0.5 µM is -8% against EphB2(h); -1% at MEK1(h); 1% on TBK1(h); 31% at PhKγ2(h); -1% against CK1γ1(h); 7% against CK1γ3(h). The inhibition at 10 µM at EphB2(h) was 4%; against MEK1(h), 24%; against TBK1(h), 2%; at PhKγ2(h) it was 89%; on CK1γ1(h), 20%; on CK1γ3(h), 28%.
Turning to `Cn1ncc(Cl)c1-c1cc(C(=O)N[C@H](CN)Cc2ccc(F)c(F)c2)oc1Cl` [GSK2141795], the inhibition at 0.5 µM on EphB2(h) (0.5 µM, read-out: % Inhibition) is -8%; on MEK1(h) (0.5 µM, read-out: % Inhibition) it was 0%; at TBK1(h) (0.5 µM, read-out: % Inhibition), 1%; on PhKγ2(h) (0.5 µM, read-out: % Inhibition) it was 23%; on CK1γ1(h) (0.5 µM, read-out: % Inhibition) it was -6%; at CK1γ3(h) (0.5 µM, read-out: % Inhibition), -14%. The inhibition at 10 µM at EphB2(h) (10 µM, read-out: % Inhibition) is 0%; at MEK1(h) (10 µM, read-out: % Inhibition), 26%; at TBK1(h) (10 µM, read-out: % Inhibition), 4%; at PhKγ2(h) (10 µM, read-out: % Inhibition), 88%; on CK1γ1(h) (10 µM, read-out: % Inhibition), 39%; at CK1γ3(h) (10 µM, read-out: % Inhibition), 51%.
